Measurements from patent publication US12227498B2, “Heterocyclic amine derivative and pharmaceutical composition comprising same” (Daewoong Pharmaceutical Co., Ltd., priority 2018, dated 2025).

Legend:
[1] = target: T1, ITK (Homo sapiens, UniProt Q08881); assay: Inhibitory activity against ITK, ADP-Glo + ITK Kinase enzyme system kit (Promega); type: biochemical; conditions: ITK enzyme 0.4 ng/μl; 15 min preincubation at room temperature; 1 hour at 30° C.; luminescence; duplicate
T1 construct: purchased Promega Corporation
T1 sequence (Q08881 1-620): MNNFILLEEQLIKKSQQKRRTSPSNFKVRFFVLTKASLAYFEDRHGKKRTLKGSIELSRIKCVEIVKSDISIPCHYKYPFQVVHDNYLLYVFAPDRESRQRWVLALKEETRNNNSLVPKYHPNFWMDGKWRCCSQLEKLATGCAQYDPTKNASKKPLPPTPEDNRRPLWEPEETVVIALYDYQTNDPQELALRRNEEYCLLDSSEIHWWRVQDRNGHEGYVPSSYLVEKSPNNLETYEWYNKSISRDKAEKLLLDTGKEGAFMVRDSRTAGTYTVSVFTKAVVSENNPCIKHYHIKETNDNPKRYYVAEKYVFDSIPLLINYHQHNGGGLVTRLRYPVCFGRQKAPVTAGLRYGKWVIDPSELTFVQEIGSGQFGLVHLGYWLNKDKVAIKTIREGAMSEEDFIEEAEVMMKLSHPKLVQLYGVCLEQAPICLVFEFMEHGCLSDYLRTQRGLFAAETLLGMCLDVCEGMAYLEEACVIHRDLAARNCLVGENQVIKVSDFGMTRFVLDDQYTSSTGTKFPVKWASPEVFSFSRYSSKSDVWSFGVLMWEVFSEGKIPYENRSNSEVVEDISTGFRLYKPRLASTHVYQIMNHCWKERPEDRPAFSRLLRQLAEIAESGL
Description: (§1) Inhibitory activities against BTK and ITK were measured for the compounds prepared in the above Examples as follows.
The inhibitory activity against ITK was evaluated using ‘ADP-Glo™+ITK Kinase enzyme system’ kit (Promega Corporation). […] To the plate on which reactions were completed, 5 μl of substrate and 5 μl of ATP prepared so as to have a final concentration of […] were added and then allowed to react at 30° C. for 1 hour. All wells of the plate were treated with 25 μl of ADP-Glo™ reagent and then allowed to react at 30° C. for 40 minutes. After that, all wells were treated with 50 μl of kinase detection buffer, and then allowed to react at 30° C. for 30 minutes under light shielding conditions. For the plate on which all reactions were completed, luminescence was measured and the results were calculated. Evaluation was carried out in duplicate, and negative control and positive control were calculated depending on whether or not the enzyme was added without treatment of the compound. The IC50 was calculated based on the calculated values.

[2] = target: T2, BTK (Homo sapiens, UniProt Q06187); assay: Inhibitory activity against BTK, ADP-Glo + BTK Kinase enzyme system kit (Promega); type: biochemical; conditions: BTK enzyme 1 ng/μl; ATP 10 µM; 15 min preincubation at room temperature; 1 hour at 30° C.; luminescence; duplicate
T2 construct: purchased Promega Corporation
Description: as §1
The inhibitory activities against BTK were evaluated using ‘ADP-Glo™+BTK Kinase enzyme system’ kit (Promega Corporation). […] 5 μl of substrate and 5 μl of ATP prepared so as to have a final concentration of 10 µM were added to the plate on which reactions were completed, and then allowed to react at 30° C. for 1 hour. All wells of the plate were treated with 25 μl of ADP-Glo™ reagent and allowed to react at 30° C. for 40 minutes. After that, all wells were treated with 50 μl of kinase detection buffer, and then reacted at 30° C. for 30 minutes under light shielding conditions. For the plate on which all reactions were completed, luminescence was measured and the results were calculated. Evaluation was carried out in duplicate, and negative control and positive control were calculated depending on whether or not the enzyme was added without treatment of the compound. The IC50 was calculated based on the calculated values.

T2 sequence (Q06187 whole entry): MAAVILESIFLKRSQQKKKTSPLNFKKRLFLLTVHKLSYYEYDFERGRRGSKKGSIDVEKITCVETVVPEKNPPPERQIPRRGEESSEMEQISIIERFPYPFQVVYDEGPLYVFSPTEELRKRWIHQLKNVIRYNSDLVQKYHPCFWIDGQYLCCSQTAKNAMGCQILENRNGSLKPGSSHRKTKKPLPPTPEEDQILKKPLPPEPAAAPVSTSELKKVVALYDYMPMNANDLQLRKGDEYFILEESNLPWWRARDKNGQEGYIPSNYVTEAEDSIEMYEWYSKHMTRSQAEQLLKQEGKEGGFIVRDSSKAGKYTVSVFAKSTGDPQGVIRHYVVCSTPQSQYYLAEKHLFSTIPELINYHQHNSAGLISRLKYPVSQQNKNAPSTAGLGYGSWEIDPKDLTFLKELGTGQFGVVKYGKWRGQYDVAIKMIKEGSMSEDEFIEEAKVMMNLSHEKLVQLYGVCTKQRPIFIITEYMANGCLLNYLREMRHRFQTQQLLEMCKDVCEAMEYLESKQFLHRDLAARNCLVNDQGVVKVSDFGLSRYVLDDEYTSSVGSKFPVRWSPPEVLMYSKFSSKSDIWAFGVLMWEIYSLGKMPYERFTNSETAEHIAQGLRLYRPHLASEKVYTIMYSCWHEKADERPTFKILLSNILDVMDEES

| IC50 [1] [nM] | IC50 [2] [nM] | SMILES |
| --- | --- | --- |
| 2 | 2 | C=CC(=O)N1CCCC(Oc2cc(CN3CCOCC3)cc(Nc3ncc(C)s3)n2)C1 (stereo not drawn) [Example 12, 1-(3-((6-((5-methylthiazol-2-yl)amino)-4-(morpholinomethyl)pyridin-2-yl)oxy)piperidin-1-yl) prop-2-en-1-one] |
| 50.5 | 5.2 | CC#CC(=O)N1CCC[C@H](Nc2cc(CN3CCOCC3)cc(Nc3ncc(C)s3)n2)C1 [Example 18, (S)-1-(3-((6-((5-methylthiazol-2-yl)amino)-4-(morpholinomethyl)pyridin-2-yl)amino)piperidin-1-yl) but-2-yn-1-one] |
| > 200 | > 200 | CC#CC(=O)N1CCC[C@@H](Nc2cc(CN3CCOCC3)cc(Nc3ncc(C)s3)n2)C1 [Example 13, (R)-1-(3-((6-((5-methylthiazol-2-yl)amino)-4-(morpholinomethyl)pyridin-2-yl)amino)piperidin-1-yl) but-2-yn-1-one] |
